Here are results for twelve molecules from BindingDB's records for doi:10.1021/jm00222a039 (1978).

A short description of this experiment: Inhibition of HMG-coA reductase in CD rat liver microsomal-cytosol fraction assessed as inhibition of fatty acid synthesis using [2-14C]acetate as substrate after 90 mins by scintillation counting analysis. For orientation: Liver microsomes are vesicles of endoplasmic reticulum, rich in cytochrome P450 enzymes.
Usually IC50 stands for the midpoint of a concentration-inhibition curve. On to `CC(CCc1ccc(-c2ccccc2)cc1)CC(=O)O` (configuration not stated), for which the IC50 came out at 80 µM.
For `CC(CCc1ccc2oc3ccccc3c2c1)CC(=O)O` (configuration not stated), the IC50 was determined as 1600 µM.
The figure for `CC(CCc1ccc(S(=O)(=O)c2ccccc2)cc1)CC(=O)O` (configuration not stated) is 80 µM.
For the molecule `CC(CC(=O)O)CC(=O)c1ccc(-c2ccccc2)cc1` (configuration not stated), the IC50 is 1200 µM.
Then `CC(CCc1ccc2sc3ccccc3c2c1)CC(=O)O` (configuration not stated), with 860 µM; and `CC(CC(=O)O)CC(=O)c1ccc(Sc2ccccc2)cc1` (configuration not stated), with 780 µM.
Take `CC(CCc1ccc(Oc2ccccc2)cc1)CC(=O)O` (configuration not stated): the IC50 is 80 µM.
Then `CC(CCc1ccc(Sc2ccccc2)cc1)CC(=O)O` (configuration not stated), with 100 µM; and `CC(CC(=O)O)CC(=O)c1ccc2oc3ccccc3c2c1` (configuration not stated), with 430 µM; and `CC(CC(=O)O)CC(=O)c1ccc2sc3ccccc3c2c1` (configuration not stated), with 930 µM.
For the molecule `CC(CCc1ccc2c(c1)-c1ccccc1S2(=O)=O)CC(=O)O` (configuration not stated), the IC50 amounted to 30 µM.
The figure for `CC(CC(=O)O)CC(=O)c1ccc(Oc2ccccc2)cc1` (configuration not stated) is 2100 µM.
